Active and inactive are the calls of the source.
Assays:
[1] = tested on: Jurkat; assay: SAR Analysis of small molecule inhibitors of T-cell specific antigen receptor-induced NF-kB activation in a Jurkat cell line using a luminescence assay. [Related pubchem assays (depositor defined):AID435003, AID435012, AID465]; assay type: functional, cell-based; details: Homo sapiens
[2] = cytotoxicity in MIN6 insulinoma cells, dose response, cytotoxicity control, cell-based, mouse insulinoma (AID 2122); assay type: functional;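 further: confirmatory high-throughput counterscreen run to flag cytotoxic compounds; mouse MIN-6 beta cells carrying an insulin promoter eGFP reporter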
[3] = C. albicans growth with fluconazole, confirmation, fluorescence, retest (AID 2467); assay type: functional, cell-based
[4] = Fluorescence-based cell-based high throughput dose response assay for inhibitors of the interaction of nucleotide-binding oligomerization domain containing 2 (NOD2) and the receptor-interacting serine-threonine kinase 2 (RIPK2).; assay type: functional; details: Homo sapiens
[5] = target: T1, Heat shock factor protein 1 (Mus musculus, UniProt P38532); assay: inhibition of MG132-induced HSE-luciferase signal, confirmation, cell-based, NIH3T3, luminescence, dose retest (AID 2382); assay type: functional;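 further: NIH3T3 fibroblasts with HSF1-driven luciferase reporter stressed by proteasome inhibitor MG132; luminescence from HSF1-driven luciferase expression after 8 hours of MG132 stress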
T1 sequence (P38532 whole entry): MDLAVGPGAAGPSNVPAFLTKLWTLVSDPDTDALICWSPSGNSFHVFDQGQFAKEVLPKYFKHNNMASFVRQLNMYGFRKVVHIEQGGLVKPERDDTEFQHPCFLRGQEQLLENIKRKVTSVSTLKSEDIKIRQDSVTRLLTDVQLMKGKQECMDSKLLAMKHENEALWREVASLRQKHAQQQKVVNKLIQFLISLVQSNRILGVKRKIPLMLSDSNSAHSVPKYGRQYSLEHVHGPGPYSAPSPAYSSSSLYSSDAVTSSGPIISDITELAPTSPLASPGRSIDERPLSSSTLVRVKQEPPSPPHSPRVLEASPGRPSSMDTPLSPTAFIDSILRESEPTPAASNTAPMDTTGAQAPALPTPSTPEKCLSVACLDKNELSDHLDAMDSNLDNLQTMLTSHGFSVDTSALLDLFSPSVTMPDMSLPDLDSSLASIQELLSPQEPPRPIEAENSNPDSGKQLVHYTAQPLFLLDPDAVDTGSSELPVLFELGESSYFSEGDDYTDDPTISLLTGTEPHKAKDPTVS

[6] = growth suppression of beta-catenin-knockout colon cells, dose response, cell-based, HCT116, human colon tumor (AID 1045); assay type: functional;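 further: HCT116 colon tumor cells with beta catenin knocked out; cells exposed to compound for 60 hours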
[7] = Luminescence Cell-Based Dose Response HTS to Identify Inhibitors of 5'UTR Stem-Loop Driven Prion Protein mRNA Translation in H4 Neuroglioblastoma Cells. [Related pubchem assays: 1827 (Project Summary), 1813 (Primary HTS)]; assay type: functional
[8] = miR-122 activators in hepatoma reporter cells, dose response, cell-based, Huh7 psiCHECK-miR122, Renilla luciferase, cherry-picked (AID 651956); assay type: functional;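 further: huh7 hepatoma cells stably carrying a psiCHECK-2 miR-122 sensor plasmid; renilla luciferase signal reporting endogenous miR-122 activity after 48 h compound exposure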
[9] = target: T2, Mitochondrial peptide methionine sulfoxide reductase (Bos taurus, UniProt P54149); assay: Absorbance-based biochemical high throughput dose response assay for activators of Methionine sulfoxide reductase A (MsrA).; assay type: functional
T2 sequence (P54149 whole entry): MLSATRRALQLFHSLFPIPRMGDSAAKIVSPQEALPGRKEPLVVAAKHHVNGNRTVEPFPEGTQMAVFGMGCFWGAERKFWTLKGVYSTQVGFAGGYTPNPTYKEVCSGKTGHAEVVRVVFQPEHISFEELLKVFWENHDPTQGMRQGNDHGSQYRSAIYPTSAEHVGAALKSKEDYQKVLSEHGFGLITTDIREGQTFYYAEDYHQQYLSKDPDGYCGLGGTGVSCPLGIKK

[10] = HEK293T cytotoxicity, dose response, cytotoxicity control for miR-122 modulator project, cell-based, inhibitor set, cherry-pick, set 2 (AID 720697); assay type: functional
[11] = target: Mothers against decapentaplegic homolog 3 (Homo sapiens, UniProt P84022); assay: SMAD3 transcription factor inhibitors, dose response (AID 715); assay type: functional
[12] = target: Histone-lysine N-methyltransferase NSD2 (Homo sapiens, UniProt O96028); assay type: biochemical
[13] = target: T3, Mannose-6-phosphate isomerase (Homo sapiens, UniProt P34949); assay: inhibitors of human PMI, primary screen, biochemical, fluorescence intensity, coupled assay (AID 1209)
T3 sequence (P34949 whole entry): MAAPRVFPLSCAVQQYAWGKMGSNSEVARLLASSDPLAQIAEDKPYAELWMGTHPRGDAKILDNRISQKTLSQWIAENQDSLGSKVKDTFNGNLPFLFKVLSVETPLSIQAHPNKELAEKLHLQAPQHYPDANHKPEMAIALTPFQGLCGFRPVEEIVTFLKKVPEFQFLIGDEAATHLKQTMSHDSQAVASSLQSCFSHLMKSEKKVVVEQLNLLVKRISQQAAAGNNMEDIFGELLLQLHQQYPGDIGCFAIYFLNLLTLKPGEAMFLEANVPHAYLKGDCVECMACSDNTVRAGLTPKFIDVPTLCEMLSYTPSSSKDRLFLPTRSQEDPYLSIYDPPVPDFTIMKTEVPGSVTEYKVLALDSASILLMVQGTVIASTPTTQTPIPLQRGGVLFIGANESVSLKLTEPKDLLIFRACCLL

[14] = HEK293T cytotoxicity, dose response, cytotoxicity control for miR-122 modulator project, cell-based, activator set, cherry-pick (AID 720690); assay type: functional;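 further: HEK293T human cells scored for general mammalian cytotoxicity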
[15] = Artemis endonuclease inhibitor potency, dose response, biochemical, fluorescence intensity (AID 720701); assay type: functional;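 further: Artemis endonuclease enzyme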
[16] = target: T4, Type-1 angiotensin II receptor (Homo sapiens, UniProt P30556); assay: AT1 receptor agonists, dose response, selectivity assay for APJ receptor agonist project, cell-based, uHTS hits (AID 488865); assay type: functional;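 further: beta-arrestin recruitment to AT1 measured by enzyme fragment complementation luminescence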
T4 sequence (P30556 whole entry): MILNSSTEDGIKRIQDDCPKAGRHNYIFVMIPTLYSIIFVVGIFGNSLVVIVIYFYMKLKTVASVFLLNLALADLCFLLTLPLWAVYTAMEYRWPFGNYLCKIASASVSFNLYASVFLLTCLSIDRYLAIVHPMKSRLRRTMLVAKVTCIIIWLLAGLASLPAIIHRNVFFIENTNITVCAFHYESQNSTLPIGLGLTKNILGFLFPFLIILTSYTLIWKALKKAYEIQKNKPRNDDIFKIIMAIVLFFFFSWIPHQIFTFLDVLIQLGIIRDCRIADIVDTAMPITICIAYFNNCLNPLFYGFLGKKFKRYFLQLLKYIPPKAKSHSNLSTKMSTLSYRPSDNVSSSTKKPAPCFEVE

[17] = target: T5, Small ubiquitin-related modifier 2 (Homo sapiens, UniProt P61956); assay: inhibitors of SUMO2 protein-protein interaction, dose response, selectivity assay for SUMO1 interaction inhibitor project, biochemical, FRET, human SUMO2, uHTS hits (AID 624384); assay type: functional; details: read-out: IC50_Mean
[18] = target: T5, Small ubiquitin-related modifier 2; assay: SUMO2–SIM peptide binding inhibitors, dose response, selectivity assay for SUMO1 interaction inhibitor project, biochemical, fluorescence polarization, uHTS hits (AID 624385); assay type: functional; details: read-out: IC50_Mean
[19] = target: T6, Protein Tat (Human immunodeficiency virus type 1 group M subtype B (isolate HXB2)(HIV-1), UniProt P04608); assay type: functional;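 further: tat binding to TAR RNA read out by fluorescence polarization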
T6 sequence (P04608 whole entry): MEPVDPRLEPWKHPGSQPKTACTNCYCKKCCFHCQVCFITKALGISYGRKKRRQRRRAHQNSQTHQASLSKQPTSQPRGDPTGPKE

[20] = target: Small ubiquitin-related modifier 1 (Homo sapiens, UniProt P63165); assay: inhibitors of SUMO1 peptide binding, dose response, biochemical, fluorescence polarization, uHTS hits (AID 624382); assay type: functional; details: read-out: IC50_Mean
Small ubiquitin-related modifier 1, sequence (P63165 whole entry): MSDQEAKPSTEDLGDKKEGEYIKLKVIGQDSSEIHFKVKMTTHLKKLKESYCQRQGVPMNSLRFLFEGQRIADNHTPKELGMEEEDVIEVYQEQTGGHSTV

T5 sequence (P61956 whole entry): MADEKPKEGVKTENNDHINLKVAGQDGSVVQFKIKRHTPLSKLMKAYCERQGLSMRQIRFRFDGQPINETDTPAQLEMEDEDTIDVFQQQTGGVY
Mothers against decapentaplegic homolog 3, sequence (P84022 whole entry): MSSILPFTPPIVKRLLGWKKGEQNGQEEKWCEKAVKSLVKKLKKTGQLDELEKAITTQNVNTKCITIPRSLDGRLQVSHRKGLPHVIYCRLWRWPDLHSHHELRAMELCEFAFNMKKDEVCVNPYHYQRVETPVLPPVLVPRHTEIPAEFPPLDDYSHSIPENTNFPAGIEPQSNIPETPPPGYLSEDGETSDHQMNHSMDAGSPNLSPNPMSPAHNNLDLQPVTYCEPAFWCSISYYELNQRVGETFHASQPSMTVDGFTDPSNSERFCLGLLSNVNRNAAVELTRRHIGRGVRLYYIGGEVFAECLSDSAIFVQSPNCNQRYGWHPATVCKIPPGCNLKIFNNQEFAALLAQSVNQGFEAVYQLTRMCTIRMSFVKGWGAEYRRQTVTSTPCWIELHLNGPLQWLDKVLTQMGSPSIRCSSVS
Histone-lysine N-methyltransferase NSD2, sequence (O96028 whole entry): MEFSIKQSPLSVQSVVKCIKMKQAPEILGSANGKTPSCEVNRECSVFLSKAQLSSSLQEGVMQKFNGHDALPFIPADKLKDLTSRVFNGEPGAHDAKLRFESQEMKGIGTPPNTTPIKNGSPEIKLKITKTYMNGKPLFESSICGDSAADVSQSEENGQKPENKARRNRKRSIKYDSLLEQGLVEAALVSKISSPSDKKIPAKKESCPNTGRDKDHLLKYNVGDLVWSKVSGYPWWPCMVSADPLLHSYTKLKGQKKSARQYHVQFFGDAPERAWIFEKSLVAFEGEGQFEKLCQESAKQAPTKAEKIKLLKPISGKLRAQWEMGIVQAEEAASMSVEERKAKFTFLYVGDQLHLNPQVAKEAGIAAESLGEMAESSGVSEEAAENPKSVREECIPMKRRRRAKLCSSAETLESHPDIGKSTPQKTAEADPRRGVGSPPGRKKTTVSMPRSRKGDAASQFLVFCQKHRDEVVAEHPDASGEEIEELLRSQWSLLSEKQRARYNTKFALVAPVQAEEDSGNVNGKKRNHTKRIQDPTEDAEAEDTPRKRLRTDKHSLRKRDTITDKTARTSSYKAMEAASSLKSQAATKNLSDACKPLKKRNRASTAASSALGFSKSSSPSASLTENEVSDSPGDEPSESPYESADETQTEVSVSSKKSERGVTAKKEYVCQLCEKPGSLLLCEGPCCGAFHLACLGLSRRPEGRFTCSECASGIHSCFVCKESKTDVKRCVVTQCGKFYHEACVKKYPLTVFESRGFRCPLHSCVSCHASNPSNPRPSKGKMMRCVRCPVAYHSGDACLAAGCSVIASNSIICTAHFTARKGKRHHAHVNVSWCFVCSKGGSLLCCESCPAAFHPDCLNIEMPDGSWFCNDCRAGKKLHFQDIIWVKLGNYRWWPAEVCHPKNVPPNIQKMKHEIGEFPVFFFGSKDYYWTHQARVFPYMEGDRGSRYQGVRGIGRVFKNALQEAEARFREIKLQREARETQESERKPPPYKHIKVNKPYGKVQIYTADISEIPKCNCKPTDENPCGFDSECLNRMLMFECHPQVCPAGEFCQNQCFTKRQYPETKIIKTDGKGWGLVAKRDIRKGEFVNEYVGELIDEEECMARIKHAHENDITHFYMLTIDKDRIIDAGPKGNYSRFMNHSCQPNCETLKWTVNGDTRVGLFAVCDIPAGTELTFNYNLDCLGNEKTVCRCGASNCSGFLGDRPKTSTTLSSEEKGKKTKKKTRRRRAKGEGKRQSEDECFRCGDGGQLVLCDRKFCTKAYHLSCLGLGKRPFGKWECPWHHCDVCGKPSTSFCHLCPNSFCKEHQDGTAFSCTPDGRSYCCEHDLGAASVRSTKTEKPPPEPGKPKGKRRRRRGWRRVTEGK

CCCC(=O)NC(c1ccccc1OC)c1ccc2cccnc2c1O (stereo not given)
IC50 [1]: 3.82 µM (active) | IC50 [2]: 1.91 µM (active) | EC50 [3]: 0.476 µM (active)

COC(=O)[C@@H]1[C@@H](C(=O)OC)C2(c3ccccc3-c3ccccc32)N(c2ccc(Cl)cc2)N1C#N
IC50 [4]: 1.77 µM (active) | EC50 [5]: 8.22 µM (inconclusive) | EC50 [6]: 8.83 µM (active)

Nc1ccc2c(c1)C(=O)C(=O)c1ccccc1-2
EC50 [7]: 8.68 µM (inconclusive) | AC50 [8]: 10.7 µM (active) | EC50 [9]: 9.09 µM (active) | AC50 [10]: 2.19 µM (active) | IC50 [11]: 9.89 µM (active) | AC50 [12]: 0.273 µM (active) | IC50 [13]: > 50 µM (not active) | AC50 [14]: 6.54 µM (active) | IC50 [15]: < 0.63 µM (active)

Cc1ccc2nc(/C(C#N)=C\c3ccc([N+](=O)[O-])o3)[nH]c2c1
EC50 [16]: > 100 µM (inactive)

COc1cc(-c2ccc(Nc3ccccc3C(=O)O)c(OC)c2)ccc1Nc1ccccc1C(=O)O
IC50 [17]: 3.91 µM (active) | IC50 [18]: 2.34 µM (active) | IC50 [19]: 12.7 µM (inconclusive) | IC50 [20]: 0.647 µM (active)

— ChEMBL document CHEMBL1201862, “PubChem BioAssay data set” (2004)
